Where two headings read alike, the source gives them in different places.
What was measured:
SMARCA2 = SMARCA2 (Homo sapiens, UniProt P51531); test: HiBit assay in engineered HT1080 CRISPR knock-in cell, 6 hrs (B series), SMARCA2; assay type: cell-based; details: 6 hrs incubation; for DC50: read-out: SMARC A2 HT1080 HiBit DC50; for Dmax: HT-1080, HT1080 CRISPR knock-in cells, read-out: SMARC A2 HT1080 HiBit Dmax (%)
Summary of the method: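 Using a 6 hr treatment window at 37° C and 5% CO2, tagged HT1080 knock-in cells were exposed to test compounds with DMSO vehicle held at 0.1%. Signal came from lytic LgBiT/substrate reagent added after incubation, with control wells lacking LgBiT, and was read as luminescence.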

SMARCA4 = SMARCA4 (Homo sapiens, UniProt P51532); test: HiBit assay in engineered HT1080 CRISPR knock-in cell, 6 hrs (B series), SMARCA4; assay type: cell-based; details: for DC50: HT1080 CRISPR knock-in cells, read-out: SMARC A4 HT1080 HiBit DC50
Sequence of SMARCA4 (P51532 whole entry): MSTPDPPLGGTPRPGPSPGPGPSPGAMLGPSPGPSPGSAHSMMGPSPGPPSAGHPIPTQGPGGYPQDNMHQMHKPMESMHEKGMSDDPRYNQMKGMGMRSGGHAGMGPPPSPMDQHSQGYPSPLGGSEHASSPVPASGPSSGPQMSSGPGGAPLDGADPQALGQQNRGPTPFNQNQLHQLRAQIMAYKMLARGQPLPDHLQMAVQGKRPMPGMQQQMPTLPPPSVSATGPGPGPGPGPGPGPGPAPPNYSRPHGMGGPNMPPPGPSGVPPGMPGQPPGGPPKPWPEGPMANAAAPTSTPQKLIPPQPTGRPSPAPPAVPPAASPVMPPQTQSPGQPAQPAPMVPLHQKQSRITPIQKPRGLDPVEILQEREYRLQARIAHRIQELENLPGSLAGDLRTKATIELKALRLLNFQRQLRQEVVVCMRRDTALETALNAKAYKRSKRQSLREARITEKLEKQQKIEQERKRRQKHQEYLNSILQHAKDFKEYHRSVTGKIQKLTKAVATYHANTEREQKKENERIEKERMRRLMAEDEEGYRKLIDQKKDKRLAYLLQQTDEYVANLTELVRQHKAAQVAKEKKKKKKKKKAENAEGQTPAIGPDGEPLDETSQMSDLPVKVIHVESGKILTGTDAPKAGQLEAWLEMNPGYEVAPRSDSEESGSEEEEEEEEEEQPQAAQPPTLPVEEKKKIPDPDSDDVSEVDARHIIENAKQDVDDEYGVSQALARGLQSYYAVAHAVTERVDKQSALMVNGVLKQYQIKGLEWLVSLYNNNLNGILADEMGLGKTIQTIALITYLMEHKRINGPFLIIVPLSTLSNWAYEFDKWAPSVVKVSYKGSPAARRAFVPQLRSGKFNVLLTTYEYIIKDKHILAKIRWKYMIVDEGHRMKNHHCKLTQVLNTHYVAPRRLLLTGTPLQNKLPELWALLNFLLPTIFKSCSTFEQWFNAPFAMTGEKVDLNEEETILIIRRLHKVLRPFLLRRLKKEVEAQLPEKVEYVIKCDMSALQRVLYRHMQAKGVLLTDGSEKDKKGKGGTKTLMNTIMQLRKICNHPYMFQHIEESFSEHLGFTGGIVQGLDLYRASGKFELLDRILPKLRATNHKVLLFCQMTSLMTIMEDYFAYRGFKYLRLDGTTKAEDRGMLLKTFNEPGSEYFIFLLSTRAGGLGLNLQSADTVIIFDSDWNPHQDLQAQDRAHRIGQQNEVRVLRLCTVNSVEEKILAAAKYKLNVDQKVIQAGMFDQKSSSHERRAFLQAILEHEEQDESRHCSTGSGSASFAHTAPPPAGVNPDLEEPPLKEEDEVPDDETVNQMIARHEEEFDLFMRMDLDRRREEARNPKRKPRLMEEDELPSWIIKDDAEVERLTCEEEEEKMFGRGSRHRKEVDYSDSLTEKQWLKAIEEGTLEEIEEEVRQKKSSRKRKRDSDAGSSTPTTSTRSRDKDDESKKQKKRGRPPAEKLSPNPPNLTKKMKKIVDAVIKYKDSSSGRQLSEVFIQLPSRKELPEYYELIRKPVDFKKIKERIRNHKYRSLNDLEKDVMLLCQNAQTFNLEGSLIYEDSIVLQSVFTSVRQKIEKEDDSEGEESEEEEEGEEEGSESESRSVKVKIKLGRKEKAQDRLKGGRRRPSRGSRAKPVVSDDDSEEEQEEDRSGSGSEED
Summary of the method: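 HT1080 CRISPR knock-in cells carrying the HiBiT tag were seeded onto compounds (final DMSO 0.1%) and incubated 6 hrs at 37° C, 5% CO2. Remaining tagged protein was detected by lytic HiBiT luminescence after adding LgBiT protein and substrate, with LgBiT-free wells serving as negative control.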

[1] = HT-1080, HT1080 CRISPR knock-in cells, 6 hrs incubation, read-out: SMARC A4 HT1080 HiBit Dmax(%)

Sequence of SMARCA2 (P51531 whole entry): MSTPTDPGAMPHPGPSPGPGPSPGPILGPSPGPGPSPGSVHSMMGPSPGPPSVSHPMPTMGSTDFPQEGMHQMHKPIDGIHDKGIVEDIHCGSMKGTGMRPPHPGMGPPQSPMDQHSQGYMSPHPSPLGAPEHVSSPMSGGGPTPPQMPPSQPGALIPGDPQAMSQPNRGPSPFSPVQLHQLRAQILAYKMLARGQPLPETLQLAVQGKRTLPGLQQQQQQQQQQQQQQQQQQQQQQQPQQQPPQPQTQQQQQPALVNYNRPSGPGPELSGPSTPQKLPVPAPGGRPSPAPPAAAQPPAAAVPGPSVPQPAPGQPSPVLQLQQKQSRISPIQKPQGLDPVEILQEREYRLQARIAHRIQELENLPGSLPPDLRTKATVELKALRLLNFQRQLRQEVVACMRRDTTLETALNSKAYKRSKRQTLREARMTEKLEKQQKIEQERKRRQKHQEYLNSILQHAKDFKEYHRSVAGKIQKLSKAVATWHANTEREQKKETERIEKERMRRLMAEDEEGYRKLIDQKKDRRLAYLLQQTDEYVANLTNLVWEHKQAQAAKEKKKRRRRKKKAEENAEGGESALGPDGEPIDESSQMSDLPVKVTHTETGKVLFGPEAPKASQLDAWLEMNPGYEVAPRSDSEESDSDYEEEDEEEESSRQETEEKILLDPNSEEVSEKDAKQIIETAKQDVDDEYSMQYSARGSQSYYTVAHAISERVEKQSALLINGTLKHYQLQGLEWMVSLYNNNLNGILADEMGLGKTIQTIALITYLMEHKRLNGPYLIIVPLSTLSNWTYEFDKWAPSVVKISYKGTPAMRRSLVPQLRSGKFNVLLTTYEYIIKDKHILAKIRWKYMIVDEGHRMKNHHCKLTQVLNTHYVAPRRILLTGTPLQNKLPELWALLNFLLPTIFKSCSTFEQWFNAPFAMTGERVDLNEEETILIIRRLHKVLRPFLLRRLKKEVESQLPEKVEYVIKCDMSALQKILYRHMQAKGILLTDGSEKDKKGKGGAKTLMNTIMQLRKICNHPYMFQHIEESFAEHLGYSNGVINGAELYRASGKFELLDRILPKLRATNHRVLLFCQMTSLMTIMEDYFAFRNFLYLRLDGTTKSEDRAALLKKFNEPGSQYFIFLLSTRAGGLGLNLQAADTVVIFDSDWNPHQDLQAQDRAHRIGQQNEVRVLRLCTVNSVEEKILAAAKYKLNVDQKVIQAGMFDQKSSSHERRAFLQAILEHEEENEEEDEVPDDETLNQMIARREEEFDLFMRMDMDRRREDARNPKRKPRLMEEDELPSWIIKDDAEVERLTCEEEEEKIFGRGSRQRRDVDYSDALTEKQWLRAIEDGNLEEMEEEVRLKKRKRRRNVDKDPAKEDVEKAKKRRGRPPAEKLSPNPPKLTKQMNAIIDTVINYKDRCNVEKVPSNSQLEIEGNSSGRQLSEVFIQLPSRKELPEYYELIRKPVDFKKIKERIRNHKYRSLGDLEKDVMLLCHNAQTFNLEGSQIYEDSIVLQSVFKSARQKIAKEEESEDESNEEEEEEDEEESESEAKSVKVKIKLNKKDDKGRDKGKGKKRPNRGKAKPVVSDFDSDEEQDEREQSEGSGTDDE

Compound | SMARC A2 HT1080 HiBit Dmax (%) (SMARCA2; HT1080 CRISPR knock-in cells) | DC50 (SMARCA2; HT1080 CRISPR knock-in cells) [nM] | DC50 (SMARCA4; 6 hrs incubation) [nM] | Dmax (SMARCA4; [1]) [%] | Dmax (SMARCA2) [%] | Dmax (SMARCA4; HT-1080, read-out: SMARC A4 HT1080 HiBit Dmax(%), HT1080 CRISPR knock-in cells, 6 hrs incubation) [%]
Cc1cc(C(C(=O)N2C[C@H](O)C[C@H]2C(=O)N[C@@H](CCN2CCC(c3cccc4c3C(C)(C)c3nc(=O)c5c(Cl)cccc5n3-4)CC2)c2ccc(-c3scnc3C)cc2)C(C)C)on1 (stereo partly drawn) [Compound B152, (2S,4R)—N—((S)-3-(4-(4-chloro-7,7-dimethyl-5-oxo-5,7-dihydroindolo[1,2-a]quinazolin-8-yl)piperidin-1-yl)-1-(4-(4-methylthiazol-5-yl)phenyl)propyl)-4-hydroxy-1-(3-methyl-2-(3-methylisoxazol-5-yl)butanoyl)pyrrolidine-2-carboxamide] | A (A (>90% degradation)) | < 100 | < 100 | 70 to 90 | – | –
Cc1ncsc1-c1ccc([C@H](C)NC(=O)[C@@H]2C[C@@H](O)CN2C(=O)[C@@H](c2cc(OCCN3CCC(c4ccc5c(c4)C(C)(C)c4nc(=O)c6c(Cl)cccc6n4-5)CC3)no2)C(C)C)cc1 [Compound B4, (2S,4R)-1-((R)-2-(3-(2-(4-(4-chloro-7,7-dimethyl-5-oxo-5,7-dihydroindolo[1,2-a]quinazolin-9-yl)piperidin-1-yl)ethoxy)isoxazol-5-yl)-3-methylbutanoyl)-4-hydroxy-N—((S)-1-(4-(4-methylthiazol-5-yl)phenyl)ethyl)pyrrolidine-2-carboxamide] | – | < 100 | < 100 | 70 to 90 | > 90 | –
Cc1ncsc1-c1ccc([C@H](C)NC(=O)[C@@H]2C[C@@H](O)CN2C(=O)[C@@H](c2cc(OC3CCC(Cn4cc(-c5ccc6c(c5)-n5c(nc(=O)c7c(Cl)cccc75)C6(C)C)cn4)CC3)no2)C(C)C)cc1 (stereo partly drawn) [Compound B95, (2S,4R)-1-((R)-2-(3-((4-((4-(4-chloro-7,7-dimethyl-5-oxo-5,7-dihydroindolo[1,2-a]quinazolin-10-yl)-1H-pyrazol-1-yl)methyl)cyclohexyl)oxy)isoxazol-5-yl)-3-methylbutanoyl)-4-hydroxy-N-((S)-1-(4-(4-methylthiazol-5-yl)phenyl)ethyl)pyrrolidine-2-carboxamide] | – | 100 to 500 | > 1000 | < 50 | 50 to 69 | –
Cc1ncsc1-c1ccc([C@H](C)NC(=O)[C@@H]2C[C@@H](O)CN2C(=O)[C@H](C(C)C)n2cc([C@H]3CC[C@H](CN4CCC(c5ccc6c(c5)C(C)(C)c5nc(=O)c7c(Cl)cccc7n5-6)CC4)CC3)nn2)cc1 [Compound B78, (2S,4R)-1-((S)-2-(4-((1r,4S)-4-((4-(4-chloro-7,7-dimethyl-5-oxo-5,7-dihydroindolo[1,2-a]quinazolin-9-yl)piperidin-1-yl)methyl)cyclohexyl)-1H-1,2,3-triazol-1-yl)-3-methylbutanoyl)-4-hydroxy-N—((S)-1-(4-(4-methylthiazol-5-yl)phenyl)ethyl)pyrrolidine-2-carboxamide] | – | < 100 | < 100 | – | > 90 | > 90
Cc1ncsc1-c1ccc([C@H](C)NC(=O)[C@@H]2C[C@@H](O)CN2C(=O)[C@@H](c2cc(OCCCCN3CCC(c4ccc5c(c4)-n4c(nc(=O)c6c(Cl)cccc64)C5(C)C)CC3)no2)C(C)C)cc1 [Compound B27, (2S,4R)-1-((R)-2-(3-(4-(4-(4-chloro-7,7-dimethyl-5-oxo-5,7-dihydroindolo[1,2-a]quinazolin-10-yl)piperidin-1-yl)butoxy)isoxazol-5-yl)-3-methylbutanoyl)-4-hydroxy-N-((S)-1-(4-(4-methylthiazol-5-yl)phenyl)ethyl)pyrrolidine-2-carboxamide] | – | < 100 | < 100 | 70 to 90 | > 90 | –
Cc1ncsc1-c1ccc([C@H](C)NC(=O)[C@@H]2C[C@@H](O)CN2C(=O)[C@@H](NC(=O)[C@H]2CC[C@H](CN3CCC(c4ccc5c(c4)C(C)(C)c4nc(=O)c6c(Cl)cccc6n4-5)CC3)CC2)C(C)(C)C)cc1 [Compound B1, (2S,4R)-1-((S)-2-((1r,4S)-4-((4-(4-chloro-7,7-dimethyl-5-oxo-5,7-dihydroindolo[1,2-a]quinazolin-9-yl)piperidin-1-yl)methyl)cyclohexane-1-carboxamido)-3,3-dimethylbutanoyl)-4-hydroxy-N—((S)-1-(4-(4-methylthiazol-5-yl)phenyl)ethyl)pyrrolidine-2-carboxamide] | – | < 100 | < 100 | 50 to 69 | > 90 | –
Cc1ncsc1-c1ccc([C@H](C)NC(=O)[C@@H]2C[C@@H](O)CN2C(=O)[C@H](C(C)C)n2cc(CCN3CCC(c4ccc5c(c4)-n4c(nc(=O)c6c(Cl)cccc64)C5(C)C)CC3)nn2)cc1 [Compound B36, (2S,4R)-1-((S)-2-(4-(2-(4-(4-chloro-7,7-dimethyl-5-oxo-5,7-dihydroindolo[1,2-a]quinazolin-10-yl)piperidin-1-yl)ethyl)-1H-1,2,3-triazol-1-yl)-3-methylbutanoyl)-4-hydroxy-N-((S)-1-(4-(4-methylthiazol-5-yl)phenyl)ethyl)pyrrolidine-2-carboxamide] | – | < 100 | < 100 | < 50 | 70 to 90 | –
Cc1ncsc1-c1ccc([C@H](CCCCCN2CCC(c3ccc4c(c3)C(C)(C)c3nc(=O)c5c(Cl)cccc5n3-4)CC2)NC(=O)[C@@H]2C[C@@H](O)CN2C(=O)[C@@H](NC(=O)C2(F)CC2)C(C)(C)C)cc1 [Compound B7, (2S,4R)—N—((S)-6-(4-(4-chloro-7,7-dimethyl-5-oxo-5,7-dihydroindolo[1,2-a]quinazolin-9-yl)piperidin-1-yl)-1-(4-(4-methylthiazol-5-yl)phenyl)hexyl)-1-((S)-2-(1-fluorocyclopropane-1-carboxamido)-3,3-dimethylbutanoyl)-4-hydroxypyrrolidine-2-carboxamide] | – | < 100 | < 100 | > 90 | > 90 | –
Cc1ncsc1-c1ccc([C@H](C)NC(=O)[C@@H]2C[C@@H](O)CN2C(=O)[C@@H](NC(=O)CCn2cc(-c3ccc4c(c3)C(C)(C)c3nc(=O)c5c(Cl)cccc5n3-4)cn2)C(C)(C)C)cc1 [Compound B101, (2S,4R)-1-((S)-2-(3-(4-(4-chloro-7,7-dimethyl-5-oxo-5,7-dihydroindolo[1,2-a]quinazolin-9-yl)-1H-pyrazol-1-yl)propanamido)-3,3-dimethylbutanoyl)-4-hydroxy-N-((S)-1-(4-(4-methylthiazol-5-yl)phenyl)ethyl)pyrrolidine-2-carboxamide] | – | > 1000 | > 1000 | < 50 | < 50 | –
Cc1ncsc1-c1ccc([C@H](C)NC(=O)[C@@H]2C[C@@H](O)CN2C(=O)[C@@H](c2cc(OCCn3cc(-c4ccc5c(c4)-n4c(nc(=O)c6c(Cl)cccc64)C5(C)C)cn3)no2)C(C)C)cc1 [Compound B60, (2S,4R)-1-(2-(3-(2-(4-(4-chloro-7,7-dimethyl-5-oxo-5,7-dihydroindolo[1,2-a]quinazolin-10-yl)-1H-pyrazol-1-yl)ethoxy)isoxazol-5-yl)-3-methylbutanoyl)-4-hydroxy-N-((S)-1-(4-(4-methylthiazol-5-yl)phenyl)ethyl)pyrrolidine-2-carboxamide] | – | < 100 | < 100 | < 50 | < 50 | –
Cc1ncsc1-c1ccc([C@H](C)NC(=O)[C@@H]2C[C@@H](O)CN2C(=O)[C@H](C(C)C)n2cc(CC3CCC(N4CCC(c5cccc6c5C(C)(C)c5nc(=O)c7c(Cl)cccc7n5-6)CC4)CC3)nn2)cc1 (stereo partly drawn) [Compound B132, (2S,4R)-1-((S)-2-(4-((4-(4-(4-chloro-7,7-dimethyl-5-oxo-5,7-dihydroindolo[1,2-a]quinazolin-8-yl)piperidin-1-yl)cyclohexyl)methyl)-1H-1,2,3-triazol-1-yl)-3-methylbutanoyl)-4-hydroxy-N—((S)-1-(4-(4-methylthiazol-5-yl)phenyl)ethyl)pyrrolidine-2-carboxamide] | – | < 100 | 100 to 500 | 70 to 90 | > 90 | –
Cc1ncsc1-c1ccc2c(c1)CCC[C@H]2NC(=O)[C@@H]1C[C@@H](O)CN1C(=O)[C@@H](n1cc([C@H]2CC[C@H](CN3CCC(c4ccc5c(c4)-n4c(nc(=O)c6c(Cl)cccc64)C5(C)C)CC3)CC2)nn1)C(C)(C)C [Compound B151, (2S,4R)-1-((S)-2-(4-((1r,4S)-4-((4-(4-chloro-7,7-dimethyl-5-oxo-5,7-dihydroindolo[1,2-a]quinazolin-10-yl)piperidin-1-yl)methyl)cyclohexyl)-1H-1,2,3-triazol-1-yl)-3,3-dimethylbutanoyl)-4-hydroxy-N-((R)-6-(4-methylthiazol-5-yl)-1,2,3,4-tetrahydronaphthalen-1-yl)pyrrolidine-2-carboxamide] | – | < 100 | 100 to 500 | 50 to 69 | > 90 | –
Cc1ncsc1-c1ccc([C@H](C)NC(=O)[C@@H]2C[C@@H](O)CN2C(=O)[C@@H](c2cc(OCC#Cc3cccc4c3C(C)(C)c3nc(=O)c5c(Cl)cccc5n3-4)no2)C(C)C)cc1 [Compound B130, (2S,4R)-1-((R)-2-(3-((3-(4-chloro-7,7-dimethyl-5-oxo-5,7-dihydroindolo[1,2-a]quinazolin-8-yl)prop-2-yn-1-yl)oxy)isoxazol-5-yl)-3-methylbutanoyl)-4-hydroxy-N-((S)-1-(4-(4-methylthiazol-5-yl)phenyl)ethyl)pyrrolidine-2-carboxamide] | – | < 100 | 100 to 500 | 50 to 69 | > 90 | –

Source: patent publication US20260092071A1, “COMPOUNDS AND COMPOSITIONS AS SMARCA2/4 DEGRADERS AND USES THEREOF” (REGENTS OF THE UNIVERSITY OF MICHIGAN, priority 2022, published 2026)
